Assay results: patent publication US12391672B2, “Solid forms comprising (S)-4-(4-(4-(((2-(2,6-dioxopiperidin-3-yl)-1-oxoisoindolin-4-yl)oxy)methyl)benzyl)piperazin-1-yl)-3-fluorobenzonitrile and salts thereof, and compositions comprising and methods of using the same” (Celgene Corporation, priority 2019, dated 2025)
Values after ≈ are worked out from the molar mass of the structure shown. Values joined by “and” are separate entries in the source; they are usually repeats but may differ in a detail not shown here. Equal values may be shown once. Each block holds one molecule with its values, some of them ahead of it.

Tests used:
[1] = tested on: non-selective α1 adrenergic receptor; assay: α1 adrenergic receptor binding at 10 μM ([3H]prazosin); settings: 0.25 nM [3H]prazosin, rat cerebral cortex membranes
Description: (§1) α1 Adrenergic and Dopamine D2 Receptors. Methods: Binding and functional assays for α1 adrenergic and dopamine D2 receptors were performed by Eurofins Cerep according to their methods.
α1 Adrenergic Receptor. Binding at 10 μM. The binding assay evaluated the affinity of test article for the non-selective α1 adrenergic receptor in rat cerebral cortex. Membrane homogenates of cerebral cortex were incubated in duplicate for 60 minutes at room temperature with 0.25 nM [^3H]prazosin in the absence or presence of test articles at 10 μM. After the incubation period, samples were filtered through glass fiber filters, the filters dried and then counted for radioactivity using a scintillation counter. Results are expressed as mean percent inhibition of control radioligand binding.

dopamine D2S receptor = molecular target: T1, dopamine D2S receptor (Homo sapiens, UniProt P14416); assay: Dopamine D2S receptor binding at 10 μM; settings: transfected HEK-293 cell membranes, read-out: Dopamine D2S % Inh. (@10 μM)
T1 construct: host or cells: HEK-293
Description: as §1
Dopamine D2 Receptor. Binding at 10 μM. The binding assay evaluated the affinity of test articles for the dopamine D2 receptor in transfected human embryonic kidney (HEK)-293 cells. For determining the binding in the D2S receptor assay, test article was incubated with 0.3 nM [^3H] methylspiperone or 1 nM [^3H] 7-hydroxy-2-N,N-dipropylaminotetralin (7-OH-DPAT). [^3H] Methylspiperone at 0.3 nM also was used as control ligand in the D2L binding assay. Cell membrane homogenates were incubated in duplicate at room temperature for 60 minutes with ligand in the absence or presence of test articles at 10 μM. After the incubation period, samples were filtered through glass fiber filters, the filters dried and then counted for radioactivity using a scintillation counter. Results are expressed as mean percent inhibition of control radioligand binding.

[2] = Thermal treatment / racemization on heating; assay type: physicochemical
Description: Thermal treatment of solid forms: the following table summarizes two experiments carried out using solvent-free thermal treatment of forms of Compound 1. The goal of these experiments was to determine whether the endotherm at 225° C. observed in many DSC experiments corresponded to the melting of the racemate of Compound 1 or whether it was a polymorphic form of Compound 1. Two experiments involved generation of different solid forms of Compound 1, the amorphous form and Form E. The resulting products were subsequently heated to temperatures where exothermic events had been observed in DSC thermograms. Both experiments confirmed that the racemate was generated by heating.
Racemization of Compound 1 during the DSC analysis was confirmed by heating the samples to various temperatures and analyzing these samples by a chiral HPLC method as well as by comparison of the melting point with a pure sample of the racemate of Compound 1. Upon heating the sample to 160° C., the chiral purity was essentially unchanged (96.1 area % at 160° C. vs. 97.1% initial). This supports the interpretation of the sharp endotherm seen in the DSC thermogram at about 152.6° C. as the melt of the enantiomer. Between 160-218° C. a gradual conversion of the enantiomer to the racemate occurs along with the recrystallization of the racemate. This explains the unsteady baseline over this temperature range and the small broad endotherm observed at about 197.1° C. […] This melting point matches the peak melting point (about 225.6° C.) of the pure racemate of Compound 1.

[3] = Solubility of polymorphic forms in physiologically relevant media and final pH; assay type: physicochemical
Source text: Solubility data of the several polymorphic forms of Compound 1 in physiologically relevant media and the final pH of these solutions are summarized in the following tables.

[4] = Dynamic vapor sorption / hygroscopicity; assay type: physicochemical; settings: for hygroscopicity: DVS, class by mass gain at 85% r.h.; for DVS mass increase: relative humidity from about 5% to about 95%
Description: Projekt Messtechnik (now ProUmid) SPS11-100n. The sample was placed on an aluminum holder on top of a microbalance and allowed to equilibrate at 50% r.h. before starting one of the following pre-defined humidity programs (1 cycle): • hold 2 h at 50% r.h., • decrease humidity −5% r.h. h^−1 for 10 h (i.e., from 50% r.h. to 0% r.h.), • hold 5 h at […]., • increase humidity +5% r.h. h^−1 for 19 h (i.e., from 0% r.h. to 95% r.h.), • hold 5 h at 95% r.h., • decrease humidity −5% r.h. h^−1 for 9 h (i.e., from 95% r.h. to 50% r.h.), • hold 2 h at 50% r.h. or • hold 2 h at 50% r.h., • increase humidity +5% r.h. h^−1 for 9 h (i.e., from 50% r.h. to 95% r.h.), • hold 5 h at 95% r.h., • decrease humidity −5% r.h. h^−1 for 19 h (i.e., from 95% r.h. to 0% r.h.), • hold 5 h at 0% r.h., • increase humidity +5% r.h. h^−1 for 10 h (i.e., from 0% r.h. to 50% r.h.), • hold 2 h at 50% r.h.
The hygroscopicity was classified based on the mass gain at 85% r.h. relative to the initial mass as follows: deliquescent (sufficient water adsorbed to form a liquid), very hygroscopic (mass increase of […]), hygroscopic (mass increase of <15% but ≥2%), slightly hygroscopic (mass increase of <2% but ≥0.2%), or non-hygroscopic (mass increase of <0.2%).

[5] = Solid state stability under accelerated storage conditions; assay type: physicochemical; settings: for Chiral purity after storage: initial value 97.96 area %; for area % chemical purity after storage: initially 98.4%
Description: Form A was not isolated directly as a wet cake but formed only upon drying of Form E in polymorphism studies. […] Small quantities of Form A were generated by dissolving a crude Compound 1 in MEK at high temperature, followed by fast cooling to room temperature, filtration and drying. DSC and TGA data were obtained for samples of Form A and following storage for 1 week at 60° C. and 60° C./75% RH. […] TGA analysis confirmed that this broad endotherm was most likely due to moisture uptake under the accelerated storage conditions. Most of the weight loss of 0.82% in this sample occurred in a single step at less than 75° C. By contrast, weigh loss was a two-step process at the initial time point. […] The residual solvent initially present in the sample was lost upon storage of the sample at 60° C. (0.13% weight loss between 25 to 150° C.).
Form B could be obtained from a process involving methyl acetate. […] HPLC traces were taken of the samples of Form B and following storage for 2 week at 60° C. and 60° C./75% RH. […] Several small degradation products were seen to grow especially in the sample stored at 60° C. Chiral instability was also observed in the sample stored at 60° C./75% RH.
Physical stability: Visually, all samples of Form K were white colored powder with no apparent change in color in the samples stored under accelerated conditions (40° C., 40° C./75% RH, 60° C., 60° C./75% RH and sample stored in light chamber in clear vials exposed to light and covered in aluminum foil) for 14 d relative to the sample stored refrigerated and under ambient conditions.
Solid state chemical stability: HPLC analysis were performed on Form K samples stored under the accelerated stability conditions. […] Based on the HPLC analysis data, there is a measurable but small change in the chemical stability of Form K under the accelerated conditions of temperature, humidity and exposure to light over the 14 d period.
Solid state chiral stability: Chiral stability of Form K samples stored under accelerated stability conditions was tested. There was ˜2.9% of the R-enantiomer (97.1 area % of the active S-isomer) in the initial sample. […]
The chiral purity (area % of S-isomer) remained […] under the accelerated stability conditions.

[6] = Mechanical stressing (grinding, compression); assay type: physicochemical; settings: ground with a mortar and pestle for 2 min
Description: Mechanical stressing experiment: the following table describes three experiments involving mechanical stressing of Form A and/or Form B of free base Compound 1 by grinding with a mortar and pestle.
Shear Sensitivity: Form K was compressed under 2000 psi for 1 minute and analyzed by XRPD.

[7] = Competitive slurry and slurry stability experiments; assay type: physicochemical; settings: aqueous slurry at room temperature, within 24 hr
Description: Form B was obtained at room temperature while form C was obtained at 45° C. in acetone alone.
The HBr salt was largely insoluble in various buffers when 1 mg/mL slurries were prepared and the mother liquor concentration determined (by HPLC): <0.05 mg/mL in all buffers tested.

T1 sequence (P14416 1-414 isoform P14416-2): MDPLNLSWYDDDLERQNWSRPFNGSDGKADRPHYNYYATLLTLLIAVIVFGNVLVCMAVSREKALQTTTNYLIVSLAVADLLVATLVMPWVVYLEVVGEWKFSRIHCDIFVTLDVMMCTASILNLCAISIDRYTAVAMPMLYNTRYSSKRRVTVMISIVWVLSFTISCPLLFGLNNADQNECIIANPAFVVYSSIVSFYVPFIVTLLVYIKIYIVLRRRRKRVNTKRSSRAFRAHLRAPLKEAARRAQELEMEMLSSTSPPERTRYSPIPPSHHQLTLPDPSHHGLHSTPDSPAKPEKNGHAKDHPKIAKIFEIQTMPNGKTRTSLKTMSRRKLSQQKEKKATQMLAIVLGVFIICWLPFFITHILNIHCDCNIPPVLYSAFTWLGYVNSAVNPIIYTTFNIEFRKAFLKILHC

- Adrenergic α1 % Inh. (@10 μM) [1]: 102%
SMILES: O=C1CCC(N2Cc3c(OCc4ccc(CN5CCN(c6ccc(F)cc6F)CC5)cc4)cccc3C2=O)C(=O)N1 (racemic) [Compound A, 3-(4-((4-((4-(2,4-difluorophenyl)piperazin-1-yl)methyl)benzyl)oxy)-1-oxoisoindolin-2-yl)piperidine-2,6-dione, reference compound]

SMILES: N#Cc1ccc(N2CCN(Cc3ccc(COc4cccc5c4CN([C@H]4CCC(=O)NC4=O)C5=O)cc3)CC2)c(F)c1 [Compound 1, (S)-4-(4-(4-(((2-(2,6-dioxopiperidin-3-yl)-1-oxoisoindolin-4-yl)oxy)methyl)benzyl)piperazin-1-yl)-3-fluorobenzonitrile]
- Adrenergic α1 % Inh. (@10 μM) [1]: 67% and 62%
- inhibition at 10 µM (dopamine D2S receptor): 55%
- racemization on heating ([2]; DSC heating, chiral HPLC, gradual between 160-218° C.): almost complete by 218 °C
- chiral purity upon heating ([2]; heated to 160° C., 97.1% initial): 96.1 area %

SMILES: N#Cc1ccc(N2CCN(Cc3ccc(COc4cccc5c4CN([C@H]4CCC(=O)NC4=O)C5=O)cc3)CC2)c(F)c1 [Form A of a free base of Compound 1]
- Solubility ([3]; FeSSiF, listed as Form A): 86 µg/mL (≈ 152 µM)
- Solubility ([3]; SGF with pepsin, listed as Form A): 429 µg/mL (≈ 756 µM)
- Solubility ([3]; pH 1 buffer HC1/NaC1, listed as Form A): 88 µg/mL (≈ 155 µM)
- Solubility ([3]; pH 3 buffer (phosphate), listed as Form A): 280 µg/mL (≈ 493 µM)
- Solubility ([3]; pH 4 buffer (acetate), listed as Form A): 159 µg/mL (≈ 280 µM)
- Solubility ([3]; pH 5 buffer (acetate), listed as Form A): 8 µg/mL (≈ 14.1 µM)
- Final pH ([3]; solubility sample in FaSSIF, listed as Form A): 6.44
- Final pH ([3]; solubility sample in FeSSiF, listed as Form A): 5.05
- Final pH ([3]; solubility sample in SGF with pepsin, listed as Form A): 1.34
- Final pH ([3]; solubility sample in Water, listed as Form A): 6.77
- Final pH ([3]; solubility sample in pH 1 buffer HC1/NaC1, listed as Form A): 1.14
- Final pH ([3]; solubility sample in pH 3 buffer (phosphate), listed as Form A): 3.70
- Final pH ([3]; solubility sample in pH 4 buffer (acetate), listed as Form A): 4.11
- Final pH ([3]; solubility sample in pH 5 buffer (acetate), listed as Form A): 5.03
- hygroscopicity ([4]; listed as Form A): slightly hygroscopic (slightly hygroscopic (mass increase of <2% but ≥0.2%))
- DVS mass increase ([4]; listed as Form A): about 2.4%
- DSC trace after storage ([5]; 1 week at 60° C.): quite similar to the initial condition
- physical form after storage (DSC, TGA) ([5]; 1 week at 60° C./75% RH): changes in physical form were observed
- PXRD result after mechanical treatment ([6]; listed as Form A): no change in polymorphic form;

SMILES: N#Cc1ccc(N2CCN(Cc3ccc(COc4cccc5c4CN([C@H]4CCC(=O)NC4=O)C5=O)cc3)CC2)c(F)c1 [Form B of a free base of Compound 1]
- Solubility ([3]; FeSSiF, listed as Form B): 77 µg/mL (≈ 136 µM)
- Solubility ([3]; SGF with pepsin, listed as Form B): 406 µg/mL (≈ 715 µM)
- Solubility ([3]; pH 1 buffer HC1/NaC1, listed as Form B): 85 µg/mL (≈ 150 µM)
- Solubility ([3]; pH 3 buffer (phosphate), listed as Form B): 125 µg/mL (≈ 220 µM)
- Solubility ([3]; pH 4 buffer (acetate), listed as Form B): 115 µg/mL (≈ 203 µM)
- Solubility ([3]; pH 5 buffer (acetate), listed as Form B): 7 µg/mL (≈ 12.3 µM)
- Final pH ([3]; solubility sample in FaSSIF, listed as Form B): 6.43
- Final pH ([3]; solubility sample in FeSSiF, listed as Form B): 5.03
- Final pH ([3]; solubility sample in SGF with pepsin, listed as Form B): 1.29
- Final pH ([3]; solubility sample in Water, listed as Form B): 6.46
- Final pH ([3]; solubility sample in pH 1 buffer HC1/NaC1, listed as Form B): 1.09
- Final pH ([3]; solubility sample in pH 3 buffer (phosphate), listed as Form B): 4.05
- Final pH ([3]; solubility sample in pH 4 buffer (acetate), listed as Form B): 4.11
- Final pH ([3]; solubility sample in pH 5 buffer (acetate), listed as Form B): 5.05
- hygroscopicity ([4]; listed as Form B): slightly hygroscopic (slightly hygroscopic (mass increase of <2% but ≥0.2%))
- DVS mass increase ([4]; listed as Form B): about 3.1%
- Chiral purity after storage ([5]; 2 week at 60° C./75% RH): 96.54 area %
- area % chemical purity after storage ([5]; 2 week at 60° C./75% RH): 97.92%
- Chiral purity after storage ([5]; 2 week at 60° C.): remained unchanged
- area % chemical purity after storage ([5]; 2 week at 60° C.): 97.71%
- colour after storage ([5]; stored at 60° C., initially white to light brown): Color change was observed
- PXRD result after mechanical treatment ([6]; listed as Form B): no change in polymorphic form
- competitive slurry with Form C [7]: rapidly converted to Form C

SMILES: N#Cc1ccc(N2CCN(Cc3ccc(COc4cccc5c4CN([C@H]4CCC(=O)NC4=O)C5=O)cc3)CC2)c(F)c1 [Form E of a free base of Compound 1]
- solid form after DVS cycle ([4]; after the DVS humidity cycle, listed as Form E): primarily amorphous material
- PXRD result after thermal treatment ([2]; N2 flow, 200° C. held for several minutes, cooled quickly): racemate
